Results from PubChem BioAssay (NCI).
Several values for one entry are separate records, joined by “and”; a condition that tells them apart may be missing. Equal values may be shown once.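 Assay format: 96-well plates, 48-hour exposure. GI50: concentration for 50% inhibition of growth. TGI: total growth inhibition.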

What was measured:
Test in all cases: inhibition of tumour cell growth, NCI panel, 48 h
MDA-MB-435 = tested on: MDA-MB-435
PC-3 prostate = tested on: PC-3 prostate
NCI/ADR-RES ovarian = tested on: NCI/ADR-RES ovarian
RXF 393 renal = tested on: RXF 393 renal
OVCAR-5 ovarian = tested on: OVCAR-5 ovarian
A498 renal = tested on: A498 renal
CAKI-1 renal = tested on: CAKI-1 renal
HCT-15 colon = tested on: HCT-15 colon
RPMI-8226 leukemia = tested on: RPMI-8226 leukemia
HL-60(TB) leukemia = tested on: HL-60(TB) leukemia

Compound	GI50 (MDA-MB-435)	TGI (MDA-MB-435)	GI50 (PC-3 prostate)	TGI (PC-3 prostate) [µM]	GI50 (NCI/ADR-RES ovarian)	TGI (NCI/ADR-RES ovarian) [µM]	GI50 (RXF 393 renal) [µM]	TGI (RXF 393 renal) [µM]	GI50 (OVCAR-5 ovarian) [µM]	TGI (OVCAR-5 ovarian) [µM]	GI50 (A498 renal)	TGI (A498 renal) [µM]	GI50 (CAKI-1 renal) [µM]	TGI (CAKI-1 renal) [µM]	GI50 (HCT-15 colon)	TGI (HCT-15 colon) [µM]	GI50 (RPMI-8226 leukemia)	TGI (RPMI-8226 leukemia) [µM]	GI50 (HL-60(TB) leukemia)	TGI (HL-60(TB) leukemia)
COc1ccc(/C=C2\CCC/C(=C\c3ccc(OC)c(OC)c3)C2=O)cc1OC	1.1 µM	> 32.5 µM	2.83 µM	> 32.5	1.18 µM	17.5	0.613	3.18	25	> 32.5	3.88 µM	> 32.5	1.13	8.16	4.96 µM	> 32.5	1.15 µM	> 32.5	2.25 µM	> 32.5 µM
CCN(CC)c1ccc2nc3ccc(=[N+](CC)CC)cc-3oc2c1	0.401 µM	1.89 µM	0.0934 µM	> 100	6.52 µM	> 73.3	1.63	9.84	0.442	2.92	1.01 µM	17.5	2.71	> 31.8	1.49 µM	> 64.8	0.264 µM	20	0.0247 µM	1.2 µM
O=C(COc1ccc(/C=C2\Oc3ccccc3C2=O)cc1)Nc1nc2ccccc2s1	8.21 µM	> 100 µM	2.27 µM	> 70.6	2.92 µM	> 100			39.4	> 100	37.1 µM	94.5	1.79		33.8 µM	> 100	2.79 µM	15.7	1.68 µM	3.51 µM
Cc1noc(NC(=O)Nc2ccccc2F)c1C#N		> 100 µM		> 41.3		> 100		> 100		> 45.8		> 50.9		> 100		> 100		> 100		> 100 µM
C=CCN(CC=C)C(=O)c1cc(C)nc2c1c(=O)n(-c1ccccc1)c(=O)n2CCCN1CCN(c2ccccc2OC)CC1	> 50 µM	> 50 µM	> 50 µM	> 50	> 50 µM	> 50	> 50	> 50	> 50	> 50	> 50 µM	> 50	> 50	> 50	> 50 µM	> 50	> 50 µM	> 50	> 50 µM	> 50 µM
COc1ccccc1Oc1nccc(-c2c(-c3ccc(F)cc3)ncn2C2CCNCC2)n1	> 24.1 µM	> 25 µM	> 20.9 µM	> 25	> 25 µM	> 25	8.67	> 25	> 25	> 25	> 25 µM	> 25	> 23.2	> 25	> 25 µM	> 25	> 19.3 µM	> 25	> 23.3 µM	> 25 µM
CSc1nc2nc(-c3ccccc3)c(C)c-2c2n1C(C)C(=O)N2 (stereo not drawn)	32.9 µM	> 100 µM	31.3 µM	> 100	38.8 µM	> 100	30.6	> 100	> 100	> 100	32.2 µM	> 100	53.6	> 100	51.2 µM	> 100	16.4 µM	> 100	36.4 µM	> 100 µM
COCCN(Cc1ccc(F)cc1)c1ccc(CO)c(Cl)c1	55.5 µM	> 100 µM	29.4 µM	> 100	27.1 µM	> 100	4.9	> 34.6	0.431	2.52	0.048 µM	0.193	21.2	> 100	30.6 µM	> 100	17.6 µM	> 95.9	27.4 µM	> 75.4 µM
OCCCCC#Cc1ccccc1C#Cc1cccc(C(F)(F)F)c1	16.9 µM	31.6 µM	18.2 µM	33.7	15.5 µM	31.1			17.5	37.2	18.2 µM	33.1	21.3	36.5	16.3 µM	30.8	21.7 µM	40.6	24.6 µM	59.5 µM
CC[C@H](C)[C@H](NC(=O)[C@H]1CCCCN1C)C(=O)N(C)[C@H](C[C@@H](OC(C)=O)c1nc(C(=O)NC23CC(C(=O)OC)(C2)C3)cs1)C(C)C	0.000137 µM and < 0.00325 µM	0.00104 µM and < 0.00325 µM	0.00129 µM and 0.00325 µM	> 32.5	0.0522 µM and 0.0479 µM	0.371				> 32.5	0.00723 µM and 0.00325 µM	0.277	0.00485		0.00333 µM and 0.00325 µM	> 32.5	0.000328 µM and 0.00325 µM	12.1	0.000186 µM and < 0.00325 µM	0.000698 µM and < 0.00325 µM
COc1cc(OC)c(OC)cc1/C=C/c1nc2ccccc2s1		15.1 µM		> 100		> 100		> 100		> 100		> 100				> 100		> 100		> 100 µM
CNCc1ccc(-c2cc(-c3nc(-c4ccc(S(=O)(=O)C(C)C)cc4)cnc3N)on2)cc1	1.35 µM	2.79 µM	1.97 µM	8.32	3.08 µM	> 74.4			4.02	21.9		2.03	2.71	21.1	0.519 µM	2.3	1.31 µM	8.45	1.35 µM	10.6 µM
O=C(c1cccs1)c1c(C(F)(F)F)n([O-])c2cc(Cl)c(Cl)cc2[n+]1=O	1.5 µM	3.12 µM	1.37 µM	2.81	1.05 µM	2.55	1.79	3.23	1.77	3.16	1.27 µM	2.61	1.53	2.92	0.286 µM	0.808			0.362 µM	3.53 µM
Cc1ccc(NC(=O)c2cc(S(=O)(=O)Nc3nnc(-c4ccccc4)c(-c4ccccc4)n3)c(SCc3ccccc3)cc2Cl)cc1	15.9 µM	35 µM	18.2 µM	49.1	20.4 µM	41.2	25.6	47.2	19.4	33.8			21.2	40.7	17.5 µM	39.1	11.8 µM	44.8	17.2 µM	41.6 µM
